Laboratory results as given in patent US10344060B2 (priority 2013, dated 2019).

What was measured:
Assay in all cases: cell-based
Format in all cases: cell-based
[1] = target: hNav1.7 (Homo sapiens, UniProt Q15858); conditions: Table 12; PatchXpress, tonic block; read-out: PX hNav1.7 Tonic IC50
[2] = target: hNav1.4 (Homo sapiens, UniProt P35499); conditions: Table 12; for IC50: PatchXpress, tonic block, read-out: PX hNav1.4 Tonic IC50; for Nav1.4/Nav1.7: ratio of PX tonic IC50 values
[3] = target: hNav1.6 (Homo sapiens, UniProt Q9UQD0); conditions: Table 15; for Nav1.6/Nav1.7: ratio of PX tonic IC50 values; for IC50: read-out: PX hNav1.6 Tonic IC50
Chain of hNav1.6 (Q9UQD0 whole entry): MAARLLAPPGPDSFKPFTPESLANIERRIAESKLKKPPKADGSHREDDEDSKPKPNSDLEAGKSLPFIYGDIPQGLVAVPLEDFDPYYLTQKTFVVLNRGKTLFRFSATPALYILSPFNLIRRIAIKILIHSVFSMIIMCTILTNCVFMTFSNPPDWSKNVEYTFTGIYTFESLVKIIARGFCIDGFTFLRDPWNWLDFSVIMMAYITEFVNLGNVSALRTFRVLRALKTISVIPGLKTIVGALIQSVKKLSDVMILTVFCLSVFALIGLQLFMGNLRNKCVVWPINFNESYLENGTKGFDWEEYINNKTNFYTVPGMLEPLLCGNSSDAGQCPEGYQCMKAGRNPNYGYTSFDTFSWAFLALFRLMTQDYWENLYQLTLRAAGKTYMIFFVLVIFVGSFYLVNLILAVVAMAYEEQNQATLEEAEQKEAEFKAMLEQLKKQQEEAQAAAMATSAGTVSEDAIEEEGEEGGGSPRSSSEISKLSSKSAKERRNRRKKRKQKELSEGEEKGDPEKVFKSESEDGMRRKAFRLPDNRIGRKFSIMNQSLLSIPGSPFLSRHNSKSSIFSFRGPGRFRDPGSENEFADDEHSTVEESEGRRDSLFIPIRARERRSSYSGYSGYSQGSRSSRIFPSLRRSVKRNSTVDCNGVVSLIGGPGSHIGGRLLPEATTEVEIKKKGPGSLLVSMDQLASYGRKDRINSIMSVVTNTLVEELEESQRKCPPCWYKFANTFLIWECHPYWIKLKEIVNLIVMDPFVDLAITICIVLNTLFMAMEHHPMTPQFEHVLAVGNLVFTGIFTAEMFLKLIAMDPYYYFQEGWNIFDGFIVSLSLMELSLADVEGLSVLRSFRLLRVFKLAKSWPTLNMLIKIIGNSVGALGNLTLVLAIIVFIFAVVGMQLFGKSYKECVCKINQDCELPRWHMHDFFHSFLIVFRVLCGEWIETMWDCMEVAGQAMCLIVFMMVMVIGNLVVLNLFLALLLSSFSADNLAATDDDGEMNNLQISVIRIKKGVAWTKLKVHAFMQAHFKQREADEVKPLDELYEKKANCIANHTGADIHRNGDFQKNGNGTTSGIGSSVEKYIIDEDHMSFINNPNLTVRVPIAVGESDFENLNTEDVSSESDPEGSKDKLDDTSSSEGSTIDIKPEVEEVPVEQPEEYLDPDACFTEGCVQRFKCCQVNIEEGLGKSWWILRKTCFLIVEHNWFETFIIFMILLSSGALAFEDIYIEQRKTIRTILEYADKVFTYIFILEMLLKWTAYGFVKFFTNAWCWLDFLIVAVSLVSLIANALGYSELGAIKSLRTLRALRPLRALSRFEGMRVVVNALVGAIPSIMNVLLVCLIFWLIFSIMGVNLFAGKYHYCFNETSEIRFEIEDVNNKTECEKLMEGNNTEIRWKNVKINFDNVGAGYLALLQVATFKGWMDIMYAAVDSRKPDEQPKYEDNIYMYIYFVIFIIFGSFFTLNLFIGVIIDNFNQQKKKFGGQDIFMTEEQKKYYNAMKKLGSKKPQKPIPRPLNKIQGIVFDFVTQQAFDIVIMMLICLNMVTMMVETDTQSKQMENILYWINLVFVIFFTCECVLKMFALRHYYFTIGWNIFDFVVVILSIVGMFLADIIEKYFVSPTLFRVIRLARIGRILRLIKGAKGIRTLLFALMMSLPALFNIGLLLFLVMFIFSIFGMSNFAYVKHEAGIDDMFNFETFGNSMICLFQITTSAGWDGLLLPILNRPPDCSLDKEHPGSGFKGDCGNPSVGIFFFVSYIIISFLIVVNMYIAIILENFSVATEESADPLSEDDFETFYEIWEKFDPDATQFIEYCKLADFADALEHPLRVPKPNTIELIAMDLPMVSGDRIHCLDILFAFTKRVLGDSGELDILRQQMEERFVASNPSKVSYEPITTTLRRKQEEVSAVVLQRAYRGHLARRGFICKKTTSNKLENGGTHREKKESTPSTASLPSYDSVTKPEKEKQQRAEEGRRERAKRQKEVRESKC

Chain of hNav1.7 (Q15858 whole entry): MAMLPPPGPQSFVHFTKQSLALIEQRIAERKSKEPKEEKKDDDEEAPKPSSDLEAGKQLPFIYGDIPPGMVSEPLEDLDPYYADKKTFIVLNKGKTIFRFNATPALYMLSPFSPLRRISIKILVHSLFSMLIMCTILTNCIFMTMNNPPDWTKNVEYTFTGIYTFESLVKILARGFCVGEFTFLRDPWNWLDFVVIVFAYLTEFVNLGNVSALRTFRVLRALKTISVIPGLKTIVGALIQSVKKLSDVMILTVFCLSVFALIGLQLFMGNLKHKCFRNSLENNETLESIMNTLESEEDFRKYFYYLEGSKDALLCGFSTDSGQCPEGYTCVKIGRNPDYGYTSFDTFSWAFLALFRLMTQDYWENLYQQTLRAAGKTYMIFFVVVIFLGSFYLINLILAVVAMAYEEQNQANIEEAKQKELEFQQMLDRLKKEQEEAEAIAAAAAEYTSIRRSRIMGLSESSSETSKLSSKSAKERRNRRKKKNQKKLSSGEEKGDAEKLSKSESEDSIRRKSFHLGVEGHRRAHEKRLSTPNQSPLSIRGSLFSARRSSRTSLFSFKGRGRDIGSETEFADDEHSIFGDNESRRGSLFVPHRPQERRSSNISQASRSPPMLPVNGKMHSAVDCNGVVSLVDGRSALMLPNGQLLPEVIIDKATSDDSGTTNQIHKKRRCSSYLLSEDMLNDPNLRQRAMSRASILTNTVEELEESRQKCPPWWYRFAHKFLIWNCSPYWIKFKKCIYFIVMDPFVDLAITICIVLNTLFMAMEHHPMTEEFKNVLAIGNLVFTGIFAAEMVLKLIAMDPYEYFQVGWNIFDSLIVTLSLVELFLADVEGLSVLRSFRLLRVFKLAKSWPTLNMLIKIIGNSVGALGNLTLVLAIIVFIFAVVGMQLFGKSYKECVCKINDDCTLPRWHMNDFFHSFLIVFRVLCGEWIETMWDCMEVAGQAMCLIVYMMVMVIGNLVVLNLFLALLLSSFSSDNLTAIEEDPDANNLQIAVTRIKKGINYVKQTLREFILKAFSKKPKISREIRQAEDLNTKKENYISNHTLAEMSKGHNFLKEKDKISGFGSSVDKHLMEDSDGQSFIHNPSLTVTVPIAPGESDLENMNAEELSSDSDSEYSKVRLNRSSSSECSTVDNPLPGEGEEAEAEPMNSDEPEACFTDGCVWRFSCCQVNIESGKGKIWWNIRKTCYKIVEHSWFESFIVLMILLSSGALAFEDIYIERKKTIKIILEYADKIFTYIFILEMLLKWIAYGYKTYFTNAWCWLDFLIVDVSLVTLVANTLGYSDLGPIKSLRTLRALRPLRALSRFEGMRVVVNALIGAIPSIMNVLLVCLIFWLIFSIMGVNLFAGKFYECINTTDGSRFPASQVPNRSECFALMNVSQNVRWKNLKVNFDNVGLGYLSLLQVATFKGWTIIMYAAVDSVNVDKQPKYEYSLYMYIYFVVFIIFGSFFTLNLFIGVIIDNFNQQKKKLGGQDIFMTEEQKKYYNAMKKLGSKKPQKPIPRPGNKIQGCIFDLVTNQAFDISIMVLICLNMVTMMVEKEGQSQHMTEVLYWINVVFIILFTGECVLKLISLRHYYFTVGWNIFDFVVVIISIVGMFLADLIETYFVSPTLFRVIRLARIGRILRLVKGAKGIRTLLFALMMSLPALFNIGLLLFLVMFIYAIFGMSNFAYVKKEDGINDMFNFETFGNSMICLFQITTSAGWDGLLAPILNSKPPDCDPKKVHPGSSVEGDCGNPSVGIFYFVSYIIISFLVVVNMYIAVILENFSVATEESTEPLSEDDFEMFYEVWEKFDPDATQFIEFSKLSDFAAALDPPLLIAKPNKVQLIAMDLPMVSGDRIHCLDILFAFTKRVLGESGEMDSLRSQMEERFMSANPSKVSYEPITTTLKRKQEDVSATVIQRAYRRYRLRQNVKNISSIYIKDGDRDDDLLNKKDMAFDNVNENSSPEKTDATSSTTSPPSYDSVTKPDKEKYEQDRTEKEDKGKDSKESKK

Structure (SMILES) | IC50 [1] [µM] | IC50 [2] [µM] | Nav1.4/Nav1.7 [2] | Nav1.6/Nav1.7 [3] | IC50 [3] [µM]
C#CC[C@H](NC(=O)[C@@H](N)CCC(=O)O)C(=O)N[C@@H](CCC(=O)O)C(=O)N[C@H]1CSSC[C@@H]2NC(=O)[C@@H]3CSSC[C@@H](C(=O)N[C@@H](CCCNC(=N)N)C(=O)N[C@@H](CCCCN)C(=O)N[C@@H](CCC(=O)O)C(=O)N[C@H](C(N)=O)[C@@H](C)CC)NC(=O)[C@H](Cc4c[nH]c5ccccc45)NC(=O)[C@H](CC(C)C)NC(=O)[C@H](CCCCN)NC(=O)[C@H](CSSC[C@H](NC(=O)[C@H]([C@@H](C)O)NC(=O)[C@H](Cc4c[nH]c5ccccc45)NC(=O)[C@H](CCCC)NC(=O)[C@H](Cc4c[nH]c5ccccc45)NC(=O)[C@H](CCCCN)NC(=O)[C@H](CCC(N)=O)NC1=O)C(=O)N[C@@H](CC(=O)O)C(=O)N[C@@H](CCC(=O)O)C(=O)N[C@@H](CCCCN)C(=O)N[C@@H](CCCNC(=N)N)C(=O)N[C@@H](C)C(=O)N3)NC(=O)[C@H](CCCNC(=N)N)NC(=O)[C@H](CC(C)C)NC(=O)CNC(=O)[C@H](CCC(=O)O)NC2=O [compound 741] | 0.00559 | 1.68 | 302 | 1014 | 5.66
C#CC[C@H](N)C(=O)N[C@@H](CCC(=O)O)C(=O)N[C@H]1CSSC[C@@H]2NC(=O)[C@@H]3CSSC[C@@H](C(=O)N[C@@H](CCCNC(=N)N)C(=O)N[C@@H](CCCCN)C(=O)N[C@@H](CCC(=O)O)C(=O)N[C@H](C(N)=O)[C@@H](C)CC)NC(=O)[C@H](Cc4c[nH]c5ccccc45)NC(=O)[C@H](CC(C)C)NC(=O)[C@H](CCCCN)NC(=O)[C@H](CSSC[C@H](NC(=O)[C@H]([C@@H](C)O)NC(=O)[C@H](Cc4c[nH]c5ccccc45)NC(=O)[C@H](CCCC)NC(=O)[C@H](Cc4c[nH]c5ccccc45)NC(=O)[C@H](CCCCN)NC(=O)[C@H](CCC(N)=O)NC1=O)C(=O)N[C@@H](CC(=O)O)C(=O)N[C@@H](CO)C(=O)N[C@@H](CCC(=O)O)C(=O)N[C@@H](CCCNC(=N)N)C(=O)N[C@@H](C)C(=O)N3)NC(=O)[C@H](CCCNC(=N)N)NC(=O)[C@H](CC(C)C)NC(=O)CNC(=O)[C@H](CCC(=O)O)NC2=O [compound 742] | 0.00414 | 1.72 | 416 | 333 | 1.38
C#CC[C@H](N)C(=O)N[C@@H](CCC(=O)O)C(=O)N[C@H]1CSSC[C@@H]2NC(=O)[C@@H]3CSSC[C@@H](C(=O)N[C@@H](CCCNC(=N)N)C(=O)N[C@@H](CCCCN)C(=O)N[C@@H](CCC(=O)O)C(=O)N[C@H](C(N)=O)[C@@H](C)CC)NC(=O)[C@H](Cc4c[nH]c5ccccc45)NC(=O)[C@H](CC(C)C)NC(=O)[C@H](CCCCN)NC(=O)[C@H](CSSC[C@H](NC(=O)[C@H]([C@@H](C)O)NC(=O)[C@H](Cc4c[nH]c5ccccc45)NC(=O)[C@H](CCCC)NC(=O)[C@H](Cc4c[nH]c5ccccc45)NC(=O)[C@H](CCCCN)NC(=O)[C@H](CCC(N)=O)NC1=O)C(=O)N[C@@H](CC(=O)O)C(=O)N[C@@H](CO)C(=O)N[C@@H](CCCCN)C(=O)N[C@@H](CCCNC(=N)N)C(=O)N[C@@H](CCC(=O)O)C(=O)N3)NC(=O)[C@H](CCCNC(=N)N)NC(=O)[C@H](CC(C)C)NC(=O)CNC(=O)[C@H](CCC(=O)O)NC2=O [compound 743] | 0.00136 | 0.67 | 494 | 1727 | 2.34
C#CC[C@H](N)C(=O)N[C@@H](Cc1ccc(O)cc1)C(=O)N[C@H]1CSSC[C@@H]2NC(=O)[C@@H]3CSSC[C@@H](C(=O)N[C@@H](CCCNC(=N)N)C(=O)N[C@@H](CCCCN)C(=O)N[C@@H](CCC(=O)O)C(=O)N[C@H](C(N)=O)[C@@H](C)CC)NC(=O)[C@H](Cc4c[nH]c5ccccc45)NC(=O)[C@H](CC(C)C)NC(=O)[C@H](CCCCN)NC(=O)[C@H](CSSC[C@H](NC(=O)[C@H]([C@@H](C)O)NC(=O)[C@H](Cc4c[nH]c5ccccc45)NC(=O)[C@H](CCCC)NC(=O)[C@H](Cc4c[nH]c5ccccc45)NC(=O)[C@H](CCCCN)NC(=O)[C@H](CCC(N)=O)NC1=O)C(=O)N[C@@H](CC(=O)O)C(=O)N[C@@H](CCC(=O)O)C(=O)N[C@@H](CCC(=O)O)C(=O)N[C@@H](CCCNC(=N)N)C(=O)N[C@@H](C)C(=O)N3)NC(=O)[C@H](CCCNC(=N)N)NC(=O)[C@H](CC(C)C)NC(=O)CNC(=O)[C@H](CCC(=O)O)NC2=O [compound 744] | 0.0038 | 1.42 | 374 | 217 | 0.825
C#CC[C@H](NC(=O)[C@@H](N)CCC(=O)O)C(=O)N[C@H]1CSSC[C@@H]2NC(=O)[C@@H]3CSSC[C@@H](C(=O)N[C@@H](CCCNC(=N)N)C(=O)N[C@@H](CCCCN)C(=O)N[C@@H](CCC(=O)O)C(=O)N[C@H](C(N)=O)[C@@H](C)CC)NC(=O)[C@H](Cc4c[nH]c5ccccc45)NC(=O)[C@H](CC(C)C)NC(=O)[C@H](CCCCN)NC(=O)[C@H](CSSC[C@H](NC(=O)[C@H]([C@@H](C)O)NC(=O)[C@H](Cc4c[nH]c5ccccc45)NC(=O)[C@H](CCCC)NC(=O)[C@H](Cc4c[nH]c5ccccc45)NC(=O)[C@H](CCCCN)NC(=O)[C@H](CCC(N)=O)NC1=O)C(=O)N[C@@H](CC(=O)O)C(=O)N[C@@H](CCC(=O)O)C(=O)N[C@@H](CCC(=O)O)C(=O)N[C@@H](CCCNC(=N)N)C(=O)N[C@@H](C)C(=O)N3)NC(=O)[C@H](CCCNC(=N)N)NC(=O)[C@H](CC(C)C)NC(=O)CNC(=O)[C@H](CCC(=O)O)NC2=O [compound 748] | 0.00666 | 2.15 | 323 | 410 | 2.73
C#CC[C@H](NC(=O)[C@@H](N)CCC(=O)O)C(=O)N[C@H]1CSSC[C@@H]2NC(=O)[C@@H]3CSSC[C@@H](C(=O)N[C@@H](CCCNC(=N)N)C(=O)N[C@@H](CCCCN)C(=O)N[C@@H](CCC(=O)O)C(=O)N[C@H](C(N)=O)[C@@H](C)CC)NC(=O)[C@H](Cc4c[nH]c5ccccc45)NC(=O)[C@H](CC(C)C)NC(=O)[C@H](CCCCN)NC(=O)[C@H](CSSC[C@H](NC(=O)[C@H]([C@@H](C)O)NC(=O)[C@H](Cc4c[nH]c5ccccc45)NC(=O)[C@H](CCCC)NC(=O)[C@H](Cc4c[nH]c5ccccc45)NC(=O)[C@H](CCCCN)NC(=O)[C@H](CCC(N)=O)NC1=O)C(=O)N[C@@H](CC(=O)O)C(=O)N[C@@H](CCC(=O)O)C(=O)N[C@@H](CCCCN)C(=O)N[C@@H](CCCNC(=N)N)C(=O)N[C@@H](CCC(=O)O)C(=O)N3)NC(=O)[C@H](CCCNC(=N)N)NC(=O)[C@H](CC(C)C)NC(=O)CNC(=O)[C@H](CCC(=O)O)NC2=O [compound 750] | 0.00291 | 1.19 | 411 | >3442 | > 10
